According to publication PMC2866155 (Chemical biology & drug design, 2009):

Tests used:
Type in all cases: cell-based
SKBR-3 cells = test: MTT antiproliferative assay, SKBR-3; conditions: Homo sapiens, SK-BR-3, 72 h, read-out: SKBR-3 IC50
MCF-7 cells = test: MTT antiproliferative assay, MCF-7; conditions: Homo sapiens, MCF7, 72 h, read-out: MCF-7 IC50
HCT116 cells = test: MTT antiproliferative assay, HCT116; conditions: Homo sapiens, HCT-116, 72 h, read-out: HCT116 IC50

IC50 (SKBR-3 cells): 1620 nM
IC50 (MCF-7 cells): 9.2 µM
IC50 (HCT116 cells): 11.9 µM
Compound: COc1ccc(C=Cc2cc(NC(=O)c3ccc(C(N)=NO)cc3)cc(OC)c2)cc1 [HERP6, 4-(N'-hydroxycarbamimidoyl)-N-[3-methoxy-5-(4-methoxystyryl)phenyl] benzamide]
